Test results as given in PubChem BioAssay AID1963839 (Molecular Pharmacology Branch, DTP, NCI, 2024).

Test system: 817829-284-R-J1-PDC complex spheroid viability
Test: Anticancer human tumor 817829-284-R-J1-PDC patient-derived colon adenocarcinoma cell line growth inhibition [POLQ]
Settings: for IC50: curve of first compound; for viability, T/C: stronger effect = lower value
In short: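 Patient-derived tumour cells were co-cultured with HUVEC and mesenchymal stem cells as multicellular spheroids at 37 °C. They were treated with POLQ inhibitors (novobiocin, ART-558, RP6685) alone or combined with other agents. Top concentrations were at or near clinical Cmax (otherwise 10 microM; SN-38 at 1 microM), decreasing in half-log steps.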

[1] = second compound 0.0316 µM, first compound 0.0316 µM
[2] = second compound 0.0316 µM, first compound 0.1 µM
[3] = second compound 0.0316 µM, first compound 0.316 µM
[4] = second compound 0.0316 µM, first compound 1 µM
[5] = second compound 0.0316 µM, first compound 3.16 µM
[6] = second compound 0.0316 µM, first compound 10 µM
[7] = second compound 0.1 µM, first compound 0.0316 µM
[8] = second compound 0.1 µM, first compound 0.1 µM
[9] = second compound 0.1 µM, first compound 0.316 µM
[10] = second compound 0.1 µM, first compound 1 µM
[11] = second compound 0.1 µM, first compound 3.16 µM
[12] = second compound 0.1 µM, first compound 10 µM
[13] = second compound 0.316 µM, first compound 0.0316 µM
[14] = second compound 0.316 µM, first compound 0.1 µM
[15] = second compound 0.316 µM, first compound 0.316 µM
[16] = second compound 0.316 µM, first compound 1 µM
[17] = second compound 0.316 µM, first compound 3.16 µM
[18] = second compound 0.316 µM, first compound 10 µM
[19] = second compound 1 µM, first compound 0.0316 µM
[20] = second compound 1 µM, first compound 0.1 µM
[21] = second compound 1 µM, first compound 0.316 µM
[22] = second compound 1 µM, first compound 1 µM
[23] = second compound 1 µM, first compound 3.16 µM
[24] = second compound 1 µM, first compound 10 µM
[25] = second compound 3.16 µM, first compound 0.0316 µM
[26] = second compound 3.16 µM, first compound 0.1 µM
[27] = second compound 3.16 µM, first compound 0.316 µM
[28] = second compound 3.16 µM, first compound 1 µM
[29] = second compound 3.16 µM, first compound 3.16 µM
[30] = second compound 3.16 µM, first compound 10 µM
[31] = second compound 10 µM, first compound 0.0316 µM
[32] = second compound 10 µM, first compound 0.1 µM
[33] = second compound 10 µM, first compound 0.316 µM
[34] = second compound 10 µM, first compound 1 µM
[35] = second compound 10 µM, first compound 3.16 µM
[36] = second compound 10 µM, first compound 10 µM
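Note: spheroids exposed to compounds for 7 days.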
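Throughout, for viability, T/C: 100% = DMSO vehicle-treated spheroids.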

CC(=O)O[C@H]1C(=O)[C@@]2(C)[C@H]([C@H](OC(=O)c3ccccc3)[C@]3(O)C[C@H](OC(=O)[C@H](O)[C@@H](NC(=O)c4ccccc4)c4ccccc4)C(C)=C1C3(C)C)[C@]1(OC(C)=O)CO[C@@H]1C[C@@H]2O + Cc1cccc(N(C)C(=O)C2C(O)CCN2c2nc(C)cc(C(F)(F)F)c2C#N)c1 was tested, and the IC50 (second compound 0.0316 µM) was < 9.49 nM, the IC50 (second compound 0.1 µM) was < 9.49 nM and the IC50 (second compound 0.316 µM) was < 9.49 nM. For the same compound, the IC50 (second compound 1 µM) was < 9.49 nM, the IC50 (second compound 3.16 µM) was < 9.49 nM and the IC50 (second compound 10 µM) was < 9.49 nM. The viability, T/C (second compound 0.0316 µM, first compound 0.00949 µM) was 4.71%, the viability, T/C (second compound 0.0316 µM, first compound 0.03 µM) was 4.06% and the viability, T/C (second compound 0.0316 µM, first compound 0.0949 µM) was 3.84%. For the same compound, the viability, T/C (second compound 0.0316 µM, first compound 0.3 µM) was 3.78%, the viability, T/C (second compound 0.0316 µM, first compound 0.949 µM) was 3.98% and the viability, T/C (second compound 0.0316 µM, first compound 3 µM) was 4.66%. The viability, T/C (second compound 0.1 µM, first compound 0.00949 µM) was 4.94%, the viability, T/C (second compound 0.1 µM, first compound 0.03 µM) was 4.36% and the viability, T/C (second compound 0.1 µM, first compound 0.0949 µM) was 3.84%. It also gave a viability, T/C (second compound 0.1 µM, first compound 0.3 µM) of 4.37%, a viability, T/C (second compound 0.1 µM, first compound 0.949 µM) of 4.32% and a viability, T/C (second compound 0.1 µM, first compound 3 µM) of 4.51%. It also gave a viability, T/C (second compound 0.316 µM, first compound 0.00949 µM) of 4.66%, a viability, T/C (second compound 0.316 µM, first compound 0.03 µM) of 4.72% and a viability, T/C (second compound 0.316 µM, first compound 0.0949 µM) of 4.39%. For the same compound, the viability, T/C (second compound 0.316 µM, first compound 0.3 µM) was 4.37%, the viability, T/C (second compound 0.316 µM, first compound 0.949 µM) was 4.24% and the viability, T/C (second compound 0.316 µM, first compound 3 µM) was 3.51%. The viability, T/C (second compound 1 µM, first compound 0.00949 µM) was 4.57%, the viability, T/C (second compound 1 µM, first compound 0.03 µM) was 8.02% and the viability, T/C (second compound 1 µM, first compound 0.0949 µM) was 4.15%. The viability, T/C (second compound 1 µM, first compound 0.3 µM) was 4.37%, the viability, T/C (second compound 1 µM, first compound 0.949 µM) was 4.04% and the viability, T/C (second compound 1 µM, first compound 3 µM) was 4.46%. The viability, T/C (second compound 3.16 µM, first compound 0.00949 µM) was 4.41%, the viability, T/C (second compound 3.16 µM, first compound 0.03 µM) was 3.99% and the viability, T/C (second compound 3.16 µM, first compound 0.0949 µM) was 4.51%. It also gave a viability, T/C (second compound 3.16 µM, first compound 0.3 µM) of 4.14%, a viability, T/C (second compound 3.16 µM, first compound 0.949 µM) of 3.93% and a viability, T/C (second compound 3.16 µM, first compound 3 µM) of 3.87%. It also gave a viability, T/C (second compound 10 µM, first compound 0.00949 µM) of 4.67%, a viability, T/C (second compound 10 µM, first compound 0.03 µM) of 3.97% and a viability, T/C (second compound 10 µM, first compound 0.0949 µM) of 4.2%. The viability, T/C (second compound 10 µM, first compound 0.3 µM) was 4.14%, the viability, T/C (second compound 10 µM, first compound 0.949 µM) was 4.11% and the viability, T/C (second compound 10 µM, first compound 3 µM) was 4.13%.

For COc1cc(C2c3cc4c(cc3C(OC3OC5COC(C)OC5C(O)C3O)C3COC(=O)C23)OCO4)cc(OC)c1O (stereo not drawn) + Cc1cccc(N(C)C(=O)C2C(O)CCN2c2nc(C)cc(C(F)(F)F)c2C#N)c1, the IC50 (second compound 0.0316 µM) was 55.1 nM, the IC50 (second compound 0.1 µM) was 56.6 nM and the IC50 (second compound 0.316 µM) was 72.1 nM. The IC50 (second compound 1 µM) was 48.6 nM, the IC50 (second compound 3.16 µM) was 47.5 nM and the IC50 (second compound 10 µM) was 45 nM. It also gave a viability, T/C [1] of 68.8%, a viability, T/C [2] of 29.6% and a viability, T/C [3] of 15.7%. The viability, T/C [4] was 17.2%, the viability, T/C [5] was 11.5% and the viability, T/C [6] was 5.61%. It also gave a viability, T/C [7] of 65.9%, a viability, T/C [8] of 34.4% and a viability, T/C [9] of 11.6%. For the same compound, the viability, T/C [10] was 20.5%, the viability, T/C [11] was 13.7% and the viability, T/C [12] was 6.16%. It also gave a viability, T/C [13] of 71.5%, a viability, T/C [14] of 41.7% and a viability, T/C [15] of 15.8%. It also gave a viability, T/C [16] of 16.7%, a viability, T/C [17] of 12.2% and a viability, T/C [18] of 7.12%. It also gave a viability, T/C [19] of 63.2%, a viability, T/C [20] of 26.5% and a viability, T/C [21] of 18.9%. For the same compound, the viability, T/C [22] was 19.1%, the viability, T/C [23] was 14.4% and the viability, T/C [24] was 6.32%. The viability, T/C [25] was 57.4%, the viability, T/C [26] was 38.2% and the viability, T/C [27] was 18%. It also gave a viability, T/C [28] of 15.7%, a viability, T/C [29] of 12.5% and a viability, T/C [30] of 6.13%. For the same compound, the viability, T/C [31] was 59.6%, the viability, T/C [32] was 26.6% and the viability, T/C [33] was 22.6%. For the same compound, the viability, T/C [34] was 17.6%, the viability, T/C [35] was 11.6% and the viability, T/C [36] was 5.64%.

With COc1cccc2c1C(=O)c1c(O)c3c(c(O)c1C2=O)CC(O)(C(=O)CO)CC3OC1CC(N)C(O)C(C)O1 (stereo not drawn) + Cc1cccc(N(C)C(=O)C2C(O)CCN2c2nc(C)cc(C(F)(F)F)c2C#N)c1 the IC50 (second compound 0.0316 µM) was < 31.6 nM, the IC50 (second compound 0.1 µM) was < 31.6 nM and the IC50 (second compound 0.316 µM) was < 31.6 nM. The IC50 (second compound 1 µM) was < 31.6 nM, the IC50 (second compound 3.16 µM) was < 31.6 nM and the IC50 (second compound 10 µM) was < 31.6 nM. For the same compound, the viability, T/C [1] was 20.6%, the viability, T/C [2] was 18.4% and the viability, T/C [3] was 6.01%. The viability, T/C [4] was 0.9%, the viability, T/C [5] was 0.17% and the viability, T/C [6] was 0.48%. It also gave a viability, T/C [7] of 21.8%, a viability, T/C [8] of 15.9% and a viability, T/C [9] of 7.06%. It also gave a viability, T/C [10] of 0.26%, a viability, T/C [11] of 0.22% and a viability, T/C [12] of 0.58%. The viability, T/C [13] was 20.2%, the viability, T/C [14] was 17.8% and the viability, T/C [15] was 6.56%. For the same compound, the viability, T/C [16] was 0.38%, the viability, T/C [17] was 0.19% and the viability, T/C [18] was 0.58%. For the same compound, the viability, T/C [19] was 21.2%, the viability, T/C [20] was 14.6% and the viability, T/C [21] was 6.03%. For the same compound, the viability, T/C [22] was 0.54%, the viability, T/C [23] was 0.29% and the viability, T/C [24] was 0.51%. The viability, T/C [25] was 20.1%, the viability, T/C [26] was 17.9% and the viability, T/C [27] was 3.35%. The viability, T/C [28] was 0.34%, the viability, T/C [29] was 0.32% and the viability, T/C [30] was 0.6%. It also gave a viability, T/C [31] of 17.4%, a viability, T/C [32] of 12.3% and a viability, T/C [33] of 4.14%. The viability, T/C [34] was 0.48%, the viability, T/C [35] was 0.3% and the viability, T/C [36] was 0.5%.

In the case of O=c1[nH]cc(F)c(=O)[nH]1 + Cc1cccc(N(C)C(=O)C2C(O)CCN2c2nc(C)cc(C(F)(F)F)c2C#N)c1, the IC50 (second compound 0.0316 µM) is reported as 1980 nM, the IC50 (second compound 0.1 µM) is reported as 3120 nM and the IC50 (second compound 0.316 µM) is reported as > 10000 nM. For the same compound, the IC50 (second compound 1 µM) was 3100 nM, the IC50 (second compound 3.16 µM) was 3650 nM and the IC50 (second compound 10 µM) was 2530 nM. It also gave a viability, T/C [1] of 98.2%, a viability, T/C [2] of 119% and a viability, T/C [3] of 68.2%. It also gave a viability, T/C [4] of 72.5%, a viability, T/C [5] of 34.8% and a viability, T/C [6] of 38.9%. It also gave a viability, T/C [7] of 91.4%, a viability, T/C [8] of 126% and a viability, T/C [9] of 110%. For the same compound, the viability, T/C [10] was 75.4%, the viability, T/C [11] was 55.9% and the viability, T/C [12] was 42.1%. The viability, T/C [13] was 92.1%, the viability, T/C [14] was 98% and the viability, T/C [15] was 106%. The viability, T/C [16] was 74.4%, the viability, T/C [17] was 55.4% and the viability, T/C [18] was 45.8%. The viability, T/C [19] was 72.5%, the viability, T/C [20] was 118% and the viability, T/C [21] was 98.8%. For the same compound, the viability, T/C [22] was 75.1%, the viability, T/C [23] was 52.7% and the viability, T/C [24] was 39.9%. It also gave a viability, T/C [25] of 89.9%, a viability, T/C [26] of 112% and a viability, T/C [27] of 102%. For the same compound, the viability, T/C [28] was 77%, the viability, T/C [29] was 54.7% and the viability, T/C [30] was 36.3%. The viability, T/C [31] was 101%, the viability, T/C [32] was 91.8% and the viability, T/C [33] was 94.1%. For the same compound, the viability, T/C [34] was 60.4%, the viability, T/C [35] was 52% and the viability, T/C [36] was 42.6%.
